Experimental data published in patent US9006450B2 (Boehringer Ingelheim International GmbH, priority 2010, dated 2015).

Target: T1, human ACC2 (Homo sapiens, UniProt O00763)
T1 construct: made in house; host or cells: insect cells (baculoviral expression system)
Test: ACC2 assay, spectrophotometric 384 well assay (NADH-linked, coupled lactate dehydrogenase/pyruvate kinase)
Type: biochemical
Conditions: ACC2 assay, hACC2 construct lacking 128 N-terminal amino acids, 25° C., 340 nm; read-out: IC50
Summary of the method: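 Human ACC2 lacking N-terminal 128 aa, baculovirus/insect-cell expressed, anion-exchange purified; 100 mM Tris pH 7.5, 10 mM citrate, 25 mM KHCO3, 1% DMSO. Started with 200 μM NADH and acetyl-CoA plus 500 μM ATP; PK/LDH-coupled A340 decrease read 15 min at 25° C. IC50 by nonlinear fit of low-control-subtracted slopes.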

T1 sequence (O00763 129-2458 limits assumed): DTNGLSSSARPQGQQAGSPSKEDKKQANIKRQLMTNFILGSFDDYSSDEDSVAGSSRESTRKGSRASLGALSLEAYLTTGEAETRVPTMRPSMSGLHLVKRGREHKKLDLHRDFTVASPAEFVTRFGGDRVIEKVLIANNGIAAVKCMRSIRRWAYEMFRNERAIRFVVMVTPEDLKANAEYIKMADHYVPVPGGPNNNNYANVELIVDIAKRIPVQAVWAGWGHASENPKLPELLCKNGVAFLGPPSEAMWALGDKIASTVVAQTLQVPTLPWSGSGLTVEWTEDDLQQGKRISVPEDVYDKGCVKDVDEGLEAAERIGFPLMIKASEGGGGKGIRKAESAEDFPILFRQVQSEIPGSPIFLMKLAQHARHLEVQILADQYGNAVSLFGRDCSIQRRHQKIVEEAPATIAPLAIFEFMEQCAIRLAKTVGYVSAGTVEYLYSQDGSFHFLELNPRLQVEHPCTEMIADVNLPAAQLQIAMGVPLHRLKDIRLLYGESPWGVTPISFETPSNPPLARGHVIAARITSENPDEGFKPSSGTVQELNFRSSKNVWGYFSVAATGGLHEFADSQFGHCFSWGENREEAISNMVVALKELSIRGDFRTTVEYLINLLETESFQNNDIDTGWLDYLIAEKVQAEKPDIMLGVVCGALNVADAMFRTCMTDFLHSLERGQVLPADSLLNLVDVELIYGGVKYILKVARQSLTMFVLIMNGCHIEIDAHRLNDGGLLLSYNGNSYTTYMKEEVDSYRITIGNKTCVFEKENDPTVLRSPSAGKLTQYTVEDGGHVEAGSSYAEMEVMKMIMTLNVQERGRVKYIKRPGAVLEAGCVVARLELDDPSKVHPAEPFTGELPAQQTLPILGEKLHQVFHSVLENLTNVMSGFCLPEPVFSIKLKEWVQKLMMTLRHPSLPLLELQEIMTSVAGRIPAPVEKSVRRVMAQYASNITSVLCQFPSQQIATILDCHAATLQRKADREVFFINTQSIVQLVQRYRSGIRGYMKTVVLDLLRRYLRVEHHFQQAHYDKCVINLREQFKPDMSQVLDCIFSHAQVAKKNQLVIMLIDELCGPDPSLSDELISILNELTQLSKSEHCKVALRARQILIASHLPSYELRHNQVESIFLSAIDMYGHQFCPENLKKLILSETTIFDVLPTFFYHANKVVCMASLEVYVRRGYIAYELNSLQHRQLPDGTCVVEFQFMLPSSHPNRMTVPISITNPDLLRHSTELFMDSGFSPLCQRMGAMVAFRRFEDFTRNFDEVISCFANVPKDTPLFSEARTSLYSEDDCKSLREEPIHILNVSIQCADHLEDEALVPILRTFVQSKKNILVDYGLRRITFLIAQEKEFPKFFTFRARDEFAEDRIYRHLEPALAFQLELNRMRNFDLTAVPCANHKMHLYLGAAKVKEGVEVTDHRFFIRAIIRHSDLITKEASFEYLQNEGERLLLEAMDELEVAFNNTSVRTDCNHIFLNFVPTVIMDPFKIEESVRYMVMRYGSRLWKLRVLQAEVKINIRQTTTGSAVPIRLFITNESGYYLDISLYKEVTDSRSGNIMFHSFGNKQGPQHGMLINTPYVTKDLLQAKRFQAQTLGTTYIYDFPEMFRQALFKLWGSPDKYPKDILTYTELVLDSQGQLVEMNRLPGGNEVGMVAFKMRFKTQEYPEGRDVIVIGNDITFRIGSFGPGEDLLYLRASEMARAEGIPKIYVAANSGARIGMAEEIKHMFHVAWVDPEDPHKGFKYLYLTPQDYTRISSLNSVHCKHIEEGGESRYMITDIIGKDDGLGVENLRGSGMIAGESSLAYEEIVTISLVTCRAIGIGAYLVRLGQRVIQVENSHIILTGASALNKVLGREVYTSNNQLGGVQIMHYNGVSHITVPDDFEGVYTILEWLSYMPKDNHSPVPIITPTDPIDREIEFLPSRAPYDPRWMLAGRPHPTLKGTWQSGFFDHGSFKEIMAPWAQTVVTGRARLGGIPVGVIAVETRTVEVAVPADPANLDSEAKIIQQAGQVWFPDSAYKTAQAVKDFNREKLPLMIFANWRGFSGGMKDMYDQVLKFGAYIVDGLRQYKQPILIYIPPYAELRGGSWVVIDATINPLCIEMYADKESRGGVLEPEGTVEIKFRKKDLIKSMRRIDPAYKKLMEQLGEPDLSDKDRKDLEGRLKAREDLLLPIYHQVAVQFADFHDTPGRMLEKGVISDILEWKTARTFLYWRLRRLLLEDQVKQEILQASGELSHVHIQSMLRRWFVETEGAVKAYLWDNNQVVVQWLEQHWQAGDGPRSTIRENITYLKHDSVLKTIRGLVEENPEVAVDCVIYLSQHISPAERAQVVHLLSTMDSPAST

| SMILES | IC50 [nM] |
| --- | --- |
| CCC(NC(C)=O)c1ccc(C2CCN(c3ccc(OCC4CC4)cc3)CC2)cc1 (stereo not drawn) [Example 1.203] | 620 |
| CCC(NC(C)=O)c1ccc(C2CCN(c3ccc(OC4CC4)cc3)CC2)cc1 (stereo not drawn) [Example 1.204] | 450 |
| CCC(NC(C)=O)c1ccc(C2CCN(c3ccc(OCC4CC4(F)F)cc3)CC2)cc1 (stereo not drawn) [Example 1.205] | 660 |
| CCOc1ccc(N2CCC(c3ccc(C(CC)NC(C)=O)cc3)CC2)cc1 (stereo not drawn) [Example 1.206] | 4700 |
| CCOc1ccc(N2CCC(c3ccc(C(CC)NC(C)=O)cc3)CC2)c(F)c1 (stereo not drawn) [Example 1.207] | 5100 |
| CCOc1ccc(N2CCC(c3ccc(CC(C)NC(C)=O)cc3)CC2)cc1 (stereo not drawn) [Example 2.1, N-(2-{4-[1-(4-Ethoxy-phenyl)-piperidin-4-yl]-phenyl}-1-methyl-ethyl)-acetamide] | 2100 |
| CCCOc1ccc(N2CCC(c3ccc(CC(C)NC(C)=O)cc3)CC2)cc1 (stereo not drawn) [Example 2.3] | 990 |
| CC(=O)NC(C)Cc1ccc(C2CCN(c3ccc4c(c3)OCCO4)CC2)cc1 (stereo not drawn) [Example 2.4] | 1800 |
| CC(=O)NC(C)Cc1ccc(C2CCN(c3ccc(OCC(C)C)cc3)CC2)cc1 (stereo not drawn) [Example 2.7] | 1600 |
| CC(=O)NC(C)Cc1ccc(C2CCN(c3ccc(OCC4CC4)cc3)CC2)cc1 (stereo not drawn) [Example 2.8] | 960 |
| CC(=O)NC(C)Cc1ccc(C2CCN(c3ccc(OC4CC4)cc3)CC2)cc1 (stereo not drawn) [Example 2.9] | 460 |
| CCOc1ccc(N2CCC(c3ccc(CC(C)NC(C)=O)cc3)CC2)c(C#N)c1 (stereo not drawn) [Example 2.11] | 1300 |
| CCOc1ccc(N2CCC(c3ccc(CC(C)NC(C)=O)cc3)CC2)c(F)c1 (stereo not drawn) [Example 2.12] | 530 |
| CC(=O)N[C@@H](C)c1ccc(C2CCN(c3cnn(Cc4ccccc4)c3)CC2)cc1 [Example 2.13] | 1900 |
| CC(=O)N[C@@H](C)c1ccc(C2CCN(c3ccc(Oc4ccccc4)nc3)CC2)cc1 [Example 3.1, (S)—N-{1-[4-(6′-Phenoxy-3,4,5,6-tetrahydro-2H-1,3′]bipyridinyl-4-yl)-phenyl′-ethyl}-acetamide] | 360 |
| CC(=O)N[C@@H](C)c1ccc(C2CCN(c3ccnc(Oc4cncnc4)c3)CC2)cc1 [Example 3.5] | 590 |
| CC(=O)N[C@@H](C)c1ccc(C2CCN(c3ccc(OCC(C)C)cc3)CC2)cc1 [Example 3.7] | 740 |
| CCCOc1ccc(N2CCC(c3ccc([C@H](C)NC(C)=O)cc3)CC2)cc1 [Example 3.8] | 340 |
| CCCn1ccc(N2CCC(c3ccc([C@H](C)NC(C)=O)cc3)CC2)cc1=O [Example 3.9] | 13300 |
| CC(=O)N[C@@H](C)c1ccc(C2CCN(c3ccc(Oc4ccccc4)nn3)CC2)cc1 [Example 3.10] | 1600 |
| CC(=O)N[C@@H](C)c1ccc(C2CCN(c3ccnc(Oc4ccccc4)c3)CC2)cc1 [Example 3.12] | 60 |

| SMILES | IC50 [nM] |
| --- | --- |
| C[C@H](NC(=O)C1CC1)c1ccc(C2CCN(c3ccnc(Oc4ccccc4)c3)CC2)cc1 [Example 3.14] | 420 |
| CCOc1ccc(N2CCC(c3ccc(C4(NC(C)=O)CC4)cc3)CC2)cc1 [Example 3.20] | 7400 |
| CC(=O)N[C@@H](C)c1ccc(C2CCN(c3nc4ccccc4s3)CC2)cc1 [Example 4.2] | 1300 |
| CC(=O)N[C@@H](C)c1ccc(C2CCN(c3ccc4ccccc4n3)CC2)cc1 [Example 4.3] | 450 |
| CC(=O)N[C@@H](C)c1ccc(C2CCN(c3cc(C)c4ccccc4n3)CC2)cc1 [Example 4.4] | 1800 |
| CC(=O)N[C@@H](C)c1ccc(C2CCN(c3nc(Cl)cc4ccccc34)CC2)cc1 [Example 4.8] | 970 |
| CC(=O)N[C@@H](C)c1ccc(C2CCN(c3nc4ccccc4o3)CC2)cc1 [Example 4.9] | 1900 |
| CC(=O)N[C@@H](C)c1ccc(C2CCN(c3ccc4cc(Cl)ccc4n3)CC2)cc1 [Example 4.10] | 670 |
| CC(=O)N[C@@H](C)c1ccc(C2CCN(c3nc4ccccc4n3C)CC2)cc1 [Example 4.12] | 11600 |
| CC(=O)N[C@@H](C)c1ccc(C2CCN(c3ccc4nnn(C)c4n3)CC2)cc1 [Example 4.14] | 2400 |
| CC(=O)N[C@@H](C)c1ccc(C2CCN(c3ccc(-c4ccccc4)cn3)CC2)cc1 [Example 4.15] | 220 |
| CC(=O)N[C@@H](C)c1ccc(C2CCN(c3cccc(C(F)(F)F)n3)CC2)cc1 [Example 4.19] | 100 |
| CC(=O)N[C@@H](C)c1ccc(C2CCN(c3nccc(-c4ccccc4)n3)CC2)cc1 [Example 4.21] | 520 |
| CC(=O)N[C@@H](C)c1ccc(C2CCN(c3cc(-c4ccccc4)ncn3)CC2)cc1 [Example 4.22] | 1100 |
| CC(=O)N[C@@H](C)c1ccc(C2CCN(c3ncc4nc(-c5ccccc5)oc4n3)CC2)cc1 [Example 4.28] | 60 |
| CC(=O)N[C@@H](C)c1ccc(C2CCN(c3noc4ccccc34)CC2)cc1 [Example 4.30] | 1100 |
| COc1cc2ccnc(N3CCC(c4ccc([C@H](C)NC(C)=O)cc4)CC3)c2cc1OC [Example 4.31] | 2000 |
| CC(=O)N[C@@H](C)c1ccc(C2CCN(c3nc4ccccc4nc3C)CC2)cc1 [Example 4.32] | 2300 |
| C[C@H](NC(=O)C1CC1)c1ccc(C2CCN(c3ncc4nc(-c5ccccc5)oc4n3)CC2)cc1 [Example 4.46] | 210 |
| C[C@H](NC(=O)N(C)C)c1ccc(C2CCN(c3ncc4nc(-c5ccccc5)oc4n3)CC2)cc1 [Example 4.47] | 80 |

Second part, the compound after the results:

| IC50 [nM] | SMILES |
| --- | --- |
| 330 | COc1cc(N2CCC(c3ccc([C@H](C)NC(C)=O)cc3)CC2)ccn1 [Example 3.2] |
| 110 | CC(=O)N[C@@H](C)c1ccc(C2CCN(c3ccnc(OC(C)C)c3)CC2)cc1 [Example 3.3] |
| 110 | CCCCOc1cc(N2CCC(c3ccc([C@H](C)NC(C)=O)cc3)CC2)ccn1 [Example 3.4] |
| 3000 | CCOc1ccc(N2CCC(c3ccc([C@H](C)NC(C)=O)cc3)CC2)nn1 [Example 3.11] |
| 470 | CCCCOc1ccc(N2CCC(c3ccc([C@H](C)NC(C)=O)cc3)CC2)nn1 [Example 3.13] |
| 2500 | CC(=O)N[C@@H](C)c1ccc(C2CCN(c3ncccc3C#N)CC2)cc1 [Example 4.1, (S)—N-(1-{4-[1-(3-Cyanopyridin-2-yl)piperidin-4-yl]phenyl}ethyl)acetamide] |
| 2600 | CC(=O)N[C@@H](C)c1ccc(C2CCN(c3ccc(C#N)cn3)CC2)cc1 [Example 4.5] |
| 1600 | CC(=O)N[C@@H](C)c1ccc(C2CCN(c3cc(C(F)(F)F)ncn3)CC2)cc1 [Example 4.6] |
| 950 | CC(=O)N[C@@H](C)c1ccc(C2CCN(c3ncnc4ccccc34)CC2)cc1 [Example 4.7] |
| 850 | CC(=O)N[C@@H](C)c1ccc(C2CCN(c3nccc(C(F)(F)F)n3)CC2)cc1 [Example 4.11] |
| 3200 | CC(=O)N[C@@H](C)c1ccc(C2CCN(c3ccc(C(C)C)cn3)CC2)cc1 [Example 4.13] |
| 1100 | COc1ccnc(N2CCC(c3ccc([C@H](C)NC(C)=O)cc3)CC2)c1 [Example 4.16] |
| 440 | CC(=O)N[C@@H](C)c1ccc(C2CCN(c3ccc(C(F)(F)F)cn3)CC2)cc1 [Example 4.17] |
| 320 | CC(=O)N[C@@H](C)c1ccc(C2CCN(c3cc(C(F)(F)F)ccn3)CC2)cc1 [Example 4.18] |
| 1300 | CC(=O)N[C@@H](C)c1ccc(C2CCN(c3ncc4c(C)n[nH]c4n3)CC2)cc1 [Example 4.20] |
| 720 | CC(=O)N[C@@H](C)c1ccc(C2CCN(c3nc(C)c4ccccc4n3)CC2)cc1 [Example 4.23] |
| 2100 | CC(=O)N[C@@H](C)c1ccc(C2CCN(c3ncnc4ccsc34)CC2)cc1 [Example 4.24] |

| IC50 [nM] | SMILES |
| --- | --- |
| 230 | CC(=O)N[C@@H](C)c1ccc(C2CCN(c3ccnc(C(C)C)n3)CC2)cc1 [Example 4.25] |
| 290 | CC(=O)N[C@@H](C)c1ccc(C2CCN(c3ccnc(C(F)(F)F)n3)CC2)cc1 [Example 4.26] |
| 330 | CCOc1cccc(N2CCC(c3ccc([C@H](C)NC(C)=O)cc3)CC2)n1 [Example 4.27] |
| 1700 | CC(=O)N[C@@H](C)c1ccc(C2CCN(c3ncc(Cl)cn3)CC2)cc1 [Example 4.29] |
| 510 | COc1cnc(N2CCC(c3ccc([C@H](C)NC(C)=O)cc3)CC2)nc1 [Example 4.33] |
| 9500 | CC(=O)Nc1cnc(N2CCC(c3ccc([C@H](C)NC(C)=O)cc3)CC2)nc1 [Example 4.34] |
| 510 | CCCc1cnc(N2CCC(c3ccc([C@H](C)NC(C)=O)cc3)CC2)nc1 [Example 4.35] |
| 1200 | COC(=O)c1cnc(N2CCC(c3ccc([C@H](C)NC(C)=O)cc3)CC2)nc1 [Example 4.36] |
| 300 | CC(=O)N[C@@H](C)c1ccc(C2CCN(c3ncc(-c4ccc(Cl)cc4)cn3)CC2)cc1 [Example 4.37] |
| 440 | CC(=O)N[C@@H](C)c1ccc(C2CCN(c3ncc(C(C)(C)C)cn3)CC2)cc1 [Example 4.38] |
| 1900 | CC(=O)N[C@@H](C)c1ccc(C2CCN(c3ncc([N+](=O)[O-])cn3)CC2)cc1 [Example 4.39] |
| 930 | CC(=O)N[C@@H](C)c1ccc(C2CCN(c3ncc(F)cn3)CC2)cc1 [Example 4.40] |
| 100 | COc1ccc(-c2cnc(N3CCC(c4ccc([C@H](C)NC(C)=O)cc4)CC3)nc2)cc1 [Example 4.41] |
| 530 | CCc1cnc(N2CCC(c3ccc([C@H](C)NC(C)=O)cc3)CC2)nc1 [Example 4.42] |
| 410 | CC(=O)N[C@@H](C)c1ccc(C2CCN(c3ncc(I)cn3)CC2)cc1 [Example 4.43, (S)—N-(1-{4-[1-(5-iodopyrimidin-2-yl)-piperidin-4-yl]-phenyl}-ethyl)-acetamide] |
| 650 | CC(=O)N[C@@H](C)c1ccc(C2CCN(c3ncc(Br)cn3)CC2)cc1 [Example 4.44] |
| 1500 | CC(=O)N[C@@H](C)c1ccc(C2CCN(c3ncccn3)CC2)cc1 [Example 4.45] |
